According to patent publication US9944647B2 (Incyte Corporation, priority 2015, dated 2018):
pIC50: −log10 of the molar value.

Each molecule was assayed against LSD-1 enzyme (Homo sapiens (Human), UniProt O60341) (assay: LANCE LSD1/KDM1A demethylase assay (LSD1 histone demethylase biochemical assay)). Settings: 1 nM LSD-1 enzyme, 1 hour preincubation at 25° C., Biotin-labeled Histone H3 peptide substrate.
Experimental: Example A: LSD1 Histone Demethylase Biochemical Assay
LANCE LSD1/KDM1A demethylase assay—10 μL of 1 nM LSD-1 enzyme (ENZO BML-SE544-0050) in the assay buffer (50 mM Tris, pH 7.5, 0.01% Tween-20, 25 mM NaCl, 5 mM DTT) were preincubated for 1 hour at 25° C. with 0.8 μL compound/DMSO dotted in black 384 well polystyrene plates. […] Reactions were stopped by addition of 10 μL 1×LANCE Detection Buffer (PerkinElmer CR97-100) supplemented with 1.5 nM Eu-anti-unmodified H3K4 Antibody (PerkinElmer TRF0404), and 225 nM LANCE Ultra Streptavidin (PerkinElmer TRF102) along with 0.9 mM Tranylcypromine-HCl (Millipore 616431). After stopping the reactions plates were incubated for 30 minutes and read on a PHERAstar FS plate reader (BMG Labtech).

`CN1CCN(Cc2ccc(-c3c(-c4ccc(C#N)cc4)nc(OC[C@@H]4CCCN(C)C4)n4ccnc34)cc2)CC1` [Example 9, 4-(8-{4-[(4-methylpiperazin-1-yl)methyl]phenyl}-5-{[(3R)-1-methylpiperidin-3-yl]methoxy}imidazo[1,2-c]pyrimidin-7-yl)benzonitrile] and `CN1CCN(C(=O)Cc2ccc(-c3c(-c4ccc(C#N)cc4)nc(OC[C@@H]4CCCN(C)C4)n4ccnc34)cc2)CC1` [Example 10, 4-(8-{4-[2-(4-methylpiperazin-1-yl)-2-oxoethyl]phenyl}-5-{[(3R)-1-methylpiperidin-3-yl]methoxy}imidazo[1,2-c]pyrimidin-7-yl)benzonitrile] cannot be ordered by pIC50: ≥ 7.30 for the first, ≥ 7.30 for the second.

`COc1ncc(-c2c(-c3ccc(C#N)cc3)nc(N3CCC(N(C)C)CC3)n3ccnc23)cc1C#N` [Example 105, 5-{7-(4-cyanophenyl)-5-[4-(dimethylamino)piperidin-1-yl]imidazo[1,2-c]pyrimidin-8-yl}-2-methoxynicotinonitrile] and `COc1ncc(-c2c(-c3ccc(C#N)cc3)nc(N3CCC(N(C)C)CC3)n3ccnc23)cc1C` [Example 53, 4-[5-[4-(dimethylamino)piperidin-1-yl]-8-(6-methoxy-5-methylpyridin-3-yl)imidazo[1,2-c]pyrimidin-7-yl]benzonitrile] cannot be ordered by pIC50: ≥ 7.30 for the first, ≥ 7.30 for the second.

`CN1C(=O)CCc2cc(-c3c(-c4ccc(C#N)cc4)nc(N4CCC(N(C)C)CC4)n4ccnc34)ccc21` [Example 130, 4-[5-[4-(dimethylamino)piperidin-1-yl]-8-(1-methyl-2-oxo-1,2,3,4-tetrahydroquinolin-6-yl)imidazo[1,2-c]pyrimidin-7-yl]benzonitrile] and `CN1C(=O)CCc2ccc(-c3c(-c4ccc(C#N)cc4)nc(N4CCC(N(C)C)CC4)n4ccnc34)cc21` [Example 131, 4-[5-[4-(dimethylamino)piperidin-1-yl]-8-(1-methyl-2-oxo-1,2,3,4-tetrahydroquinolin-7-yl)imidazo[1,2-c]pyrimidin-7-yl]benzonitrile] cannot be ordered by pIC50: ≥ 7.30 for the first, 6.30 to 7.30 for the second.

`COCCN1CCC[C@@H](COc2nc(-c3ccc(C#N)cc3)c(-c3cnc4c(cnn4C)c3)c3nccn23)C1` [Example 41, 4-[5-{[(3R)-1-(2-methoxyethyl)piperidin-3-yl]methoxy}-8-(1-methyl-1H-pyrazolo[3,4-b]pyridin-5-yl)imidazo[1,2-c]pyrimidin-7-yl]benzonitrile] and `Cn1ncc2cc(-c3c(-c4ccc(C#N)cc4)nc(OC[C@@H]4CCCN(CC(C)(C)O)C4)n4ccnc34)cnc21` [Example 138, 4-[5-{[(3R)-1-(2-hydroxy-2-methylpropyl)piperidin-3-yl]methoxy}-8-(1-methyl-1H-pyrazolo[3,4-b]pyridin-5-yl)imidazo[1,2-c]pyrimidin-7-yl]benzonitrile] cannot be ordered by pIC50: ≥ 7.30 for the first, 6.30 to 7.30 for the second.

`Cc1ccc(-c2c(-c3ccc(C#N)cc3)nc(N3CCC(N(C)C)CC3)n3ccnc23)c(CO)c1` [Example 111, 4-{5-[4-(dimethylamino)piperidin-1-yl]-8-[2-(hydroxymethyl)-4-methylphenyl]imidazo[1,2-c]pyrimidin-7-yl}benzonitrile] and `Cc1ccc(-c2c(-c3ccc(C#N)cc3)nc(N3CC[C@@H](N(C)C)C3)n3ccnc23)cc1CO` [Example 100, 4-{5-[(3R)-3-(dimethylamino)pyrrolidin-1-yl]-8-[3-(hydroxymethyl)-4-methylphenyl]imidazo[1,2-c]pyrimidin-7-yl}benzonitrile] cannot be ordered by pIC50: ≥ 7.30 for the first, ≥ 7.30 for the second.

`CCN1CCC[C@@H](COc2nc(-c3ccc(C#N)cc3)c(-c3ccc(C)c(CO)c3)c3nccn23)C1` [Example 99, 4-{5-{[(3R)-1-ethylpiperidin-3-yl]methoxy}-8-[3-(hydroxymethyl)-4-methylphenyl]imidazo[1,2-c]pyrimidin-7-yl}benzonitrile] and `CCN1CCC[C@@H](COc2nc(-c3ccc(C#N)cc3)c(-c3ccc4c(c3)oc(=O)n4C)c3nccn23)C1` [Example 55, 4-[5-{1[(3R)-1-ethylpiperidin-3-yl]methoxy}-8-(3-methyl-2-oxo-2,3-dihydro-1,3-benzoxazol-6-yl)imidazo[1,2-c]pyrimidin-7-yl]benzonitrile] cannot be ordered by pIC50: ≥ 7.30 for the first, ≥ 7.30 for the second.

`CN1CCC[C@@H](COc2nc(-c3ccc(C#N)cc3)c(-c3ccc4c(c3)OCC(=O)N4C)c3nccn23)C1` [Example 15, 4-(8-(4-methyl-3-oxo-3,4-dihydro-2H-1,4-benzoxazin-7-yl)-5-{[(3R)-1-methylpiperidin-3-yl]methoxy}imidazo[1,2-c]pyrimidin-7-yl)benzonitrile] and `Cc1nc2cc(-c3c(-c4ccc(C#N)cc4)nc(OC[C@@H]4CCCN(C)C4)n4ccnc34)ccc2n1C` [Example 65, 4-(8-(1,2-dimethyl-1H-benzimidazol-5-yl)-5-{[(3R)-1-methylpiperidin-3-yl]methoxy}imidazo[1,2-c]pyrimidin-7-yl)benzonitrile] cannot be ordered by pIC50: 6.30 to 7.30 for the first, ≥ 7.30 for the second.

`CN1CCC[C@@H](COc2nc(-c3ccc(C#N)cc3)c(-c3ccc(CN4CCOCC4)c(F)c3)c3nccn23)C1` [Example 80, 4-(8-[3-fluoro-4-(morpholin-4-ylmethyl)phenyl]-5-{[(3R)-1-methylpiperidin-3-yl]methoxy}imidazo[1,2-c]pyrimidin-7-yl)benzonitrile] and `COC(=O)N(C)c1ccc(-c2c(-c3ccc(C#N)cc3)nc(OC[C@@H]3CCCN(C)C3)n3ccnc23)cc1F` [Example 75] cannot be ordered by pIC50: ≥ 7.30 for the first, 6.30 to 7.30 for the second.

`CN1CCC[C@@H](COc2nc(-c3ccc(C#N)cc3)c(-c3cnc4c(c3)oc(=O)n4C)c3nccn23)C1` [Example 61, 4-(8-(3-methyl-2-oxo-2,3-dihydro[1,3]oxazolo[4,5-b]pyridin-6-yl)-5-{[(3R)-1-methylpiperidin-3-yl]methoxy}imidazo[1,2-c]pyrimidin-7-yl)benzonitrile] and `CN1CC[C@@H](COc2nc(-c3ccc(C#N)cc3)c(-c3ccc4c(c3)oc(=O)n4C)c3nccn23)C1` [Example 26, 4-(8-(3-methyl-2-oxo-2,3-dihydro-1,3-benzoxazol-6-yl)-5-{[(3R)-1-methylpyrrolidin-3-yl]methoxy}imidazo[1,2-c]pyrimidin-7-yl)benzonitrile] fall in the same range of pIC50: 6.30 to 7.30 for the first, 6.30 to 7.30 for the second.

`CN(C)c1ncc(-c2c(-c3ccc(C#N)cc3)nc(N3CCC(N(C)C)CC3)n3ccnc23)cc1F` [Example 82, 4-{8-[6-(dimethylamino)-5-fluoropyridin-3-yl]-5-[4-(dimethylamino)piperidin-1-yl]imidazo[1,2-c]pyrimidin-7-yl}benzonitrile] and `Cc1ncc(-c2c(-c3ccc(C#N)cc3)nc(N3CCC(N(C)C)CC3)n3ccnc23)cc1Cl` [Example 103, 4-{8-(5-chloro-6-methylpyridin-3-yl)-5-[4-(dimethylamino)piperidin-1-yl]imidazo[1,2-c]pyrimidin-7-yl}benzonitrile] cannot be ordered by pIC50: ≥ 7.30 for the first, ≥ 7.30 for the second.

`CN(C)C1CCN(c2nc(-c3ccc(C#N)cc3)c(-c3ccc4c(c3)CC(O)C4)c3nccn23)CC1` (stereo not shown) [Example 122, 4-[5-[4-(dimethylamino)piperidin-1-yl]-8-(2-hydroxy-2,3-dihydro-1H-inden-5-yl)imidazo[1,2-c]pyrimidin-7-yl]benzonitrile] and `CN1CCC[C@@H](COc2nc(-c3ccc(C#N)cc3)c(-c3ccc4c(c3)CC(C(=O)N(C)C)O4)c3nccn23)C1` (stereo partly drawn) [Example 20, 5-(7-(4-cyanophenyl)-5-{[(3R)-1-methylpiperidin-3-yl]methoxy}imidazo[1,2-c]pyrimidin-8-yl)-N,N-dimethyl-2,3-dihydro-1-benzofuran-2-carboxamide] cannot be ordered by pIC50: ≥ 7.30 for the first, ≥ 7.30 for the second.

`CN1CCC[C@@H](COc2nc(-c3ccc(C#N)cc3)c(-c3ccc(CN4CC[C@H](C#N)C4)cc3)c3nccn23)C1` [Example 13, (3S)-1-[4-(7-(4-cyanophenyl)-5-{[(3R)-1-methylpiperidin-3-yl]methoxy}imidazo[1,2-c]pyrimidin-8-yl)benzyl]pyrrolidine-3-carbonitrile] and `Cc1ccc(-c2c(-c3ccc(C#N)cc3)nc(OC[C@@H]3CCN(C)C3)n3ccnc23)cc1` [Example 2, 4-(8-(4-methylphenyl)-5-{[(3R)-1-methylpyrrolidin-3-yl]methoxy}imidazo[1,2-c]pyrimidin-7-yl)benzonitrile] cannot be ordered by pIC50: ≥ 7.30 for the first, 6.30 to 7.30 for the second.

`C[C@@H](O)CN1CCC[C@@H](COc2nc(-c3ccc(C#N)cc3)c(-c3ccc4c(c3)oc(=O)n4C)c3nccn23)C1` [Example 133, 4-[5-({(3R)-1-[(2R)-2-hydroxypropyl]piperidin-3-yl}methoxy)-8-(3-methyl-2-oxo-2,3-dihydro-1,3-benzoxazol-6-yl)imidazo[1,2-c]pyrimidin-7-yl]benzonitrile] and `C[C@H](O)CN1CCC[C@@H](COc2nc(-c3ccc(C#N)cc3)c(-c3ccc4c(c3)oc(=O)n4C)c3nccn23)C1` [Example 134, 4-[5-({(3R)-1-[(2S)-2-hydroxypropyl]piperidin-3-yl}methoxy)-8-(3-methyl-2-oxo-2,3-dihydro-1,3-benzoxazol-6-yl)imidazo[1,2-c]pyrimidin-7-yl]benzonitrile] cannot be ordered by pIC50: 6.30 to 7.30 for the first, ≥ 7.30 for the second.

`CN1CC[C@@H](COc2nc(-c3ccc(C#N)cc3)c(-c3ccc4c(cnn4C)c3)c3nccn23)C1` [Example 27, 4-(8-(1-methyl-1H-indazol-5-yl)-5-{[(3R)-1-methylpyrrolidin-3-yl]methoxy}imidazo[1,2-c]pyrimidin-7-yl)benzonitrile] and `Cc1ccc(-c2c(-c3ccc(C#N)cc3)nc(OC[C@@H]3CCCN(C)C3)n3ccnc23)cn1` [Example 73, 4-[5-{[(3R)-1-methylpiperidin-3-yl]methoxy}-8-(6-methylpyridin-3-yl)imidazo[1,2-c]pyrimidin-7-yl]benzonitrile] cannot be ordered by pIC50: ≥ 7.30 for the first, 6.30 to 7.30 for the second.
